From US20250118779A1, “BIPOLAR PARAMETHOXYPHENYL CONTAINING REDOX MOLECULES” (ExxonMobil Technology and Engineering Company, priority 2023, published 2025)
Converted amounts (≈) assume the structure as drawn.

Assays:
[1] = Room temperature solubility in acetonitrile; format: physicochemical; details: moles per liter of solution; for solubility: organic solvent or mixture, read-out: MeCN solubility
[2] = Cyclic voltammetry screening (3-electrode beaker cell); format: physicochemical; details: 0.1 M TBAPF6 in acetonitrile; for E1/2^0 (half-cell potential, arithmetic average of anode and cathode peaks): 5 mM redox species, Ag|10 mM AgNO3 reference; for E1/2^0 (half-cell potential, arithmetic average of anode and cathode peaks) / redox potential, E1/2: 100 mV/s; for redox potential, E1/2 / Redox activity of the bipolar molecule (in words): 5 mM; for redox potential, E1/2: vs Ag|10 mM AgNO3 in acetonitrile (−0.09 V vs Fc|Fc+); for E^1/2, catholyte (positive) redox event / E^1/2, anolyte (negative) redox event / Ecell^0 (cell voltage): bipolar compound 5 mM; for E^1/2, catholyte (positive) redox event / E^1/2, anolyte (negative) redox event: vs Ag|10 mM AgNO3; for Redox activity of the bipolar molecule (in words): cyclic voltammogram

E^1/2, catholyte (positive) redox event [2]	E^1/2, anolyte (negative) redox event [2]	Ecell^0 (cell voltage) [2]	Compound	E1/2^0 (half-cell potential, arithmetic average of anode and cathode peaks) [2]	redox potential, E1/2 [2]	also measured
–	–	–	C(=C\c1ccccc1)/c1ccccc1 [trans-stilbene, reference compound]	−2.571 V vs Ag|Ag^+	−2.571 V	solubility [1]: 1070 mM (≈ 193 mg/mL)
–	–	–	Cc1cccc2ccccc12 [1-methylnaphthalene, reference compound]	−2.909 V vs Ag|Ag^+	−2.909 V	MeCN solubility ([1]; acetonitrile solvent): miscible
+0.981 V	–	–	COc1ccc(OCc2cccc3ccccc23)cc1 [Entry 2]	–	–	Redox activity of the bipolar molecule (in words) [2]: non-redox active molecule
–	−2.665 V	–	COc1ccc(CCOc2ccc(/C=C/c3ccccc3)cc2)cc1 [Entry 7]	–	–	Redox activity of the bipolar molecule (in words) [2]: non-redox active molecule
+0.985 V	–	–	COc1ccc(OCc2ccccc2-c2ccccc2)cc1 [Entry 5]	–	–	Redox activity of the bipolar molecule (in words) [2]: non-redox active molecule
–	–	–	COc1ccc(OC)cc1 [p-dimethoxybenzene, reference compound]	+0.967 V vs Ag|Ag^+	+0.967 V	solubility [1]: 600 mM (≈ 82.9 mg/mL)
+0.953 V	−2.976 V	3.93 V	COc1ccc(OCCc2cccc(-c3ccccc3)c2)cc1 [Entry 3]	–	–	–
+1.096 V	−2.632 V	3.73 V	COc1ccc(OCCc2ccc(/C=C/c3ccccc3)cc2)cc1 [Entry 6]	–	–	–
+0.934 V	−1.217 V	3.82 V	COc1ccc(OCCc2ccccc2-c2ccccc2)cc1 [Entry 4]	–	–	–
–	–	–	c1ccc(-c2ccccc2)cc1 [biphenyl, reference compound]	−2.987 V vs Ag|Ag^+	−2.987 V	solubility [1]: 1730 mM (≈ 267 mg/mL)
+0.958 V	−2.857 V	3.82 V	COc1ccc(OCCc2cccc3ccccc23)cc1 [Entry 1]	–	–	–
